Results as given in ChEMBL document CHEMBL3046640, “Synthesis and antimicrobial activity of bischalcone derivatives” (2013).
Converted amounts (≈) assume the structure as drawn. The source made the active and inactive calls. The rule behind the calls is not given here.

Tests used:
Assay type in all cases: functional
Aspergillus niger [1] = experiment: Antifungal activity against Aspergillus niger ATCC 16404 assessed as growth inhibition at 100 ug/mL after 3 to 4 days by agar diffusion method; details: read-out: DIZ
Rhizopus arrhizus [2] = experiment: Antifungal activity against Rhizopus oryzae MTCC 262 assessed as growth inhibition at 100 ug/mL after 3 to 4 days by agar diffusion method; details: read-out: DIZ
Pseudomonas aeruginosa [3] = experiment: Antibacterial activity against Pseudomonas aeruginosa ATCC 27853 assessed as growth inhibition after 24 hr by broth dilution method
Rhizopus arrhizus [4] = experiment: Antifungal activity against Rhizopus oryzae MTCC 262 assessed as growth inhibition after 48 hr by broth dilution method
Candida albicans [5] = experiment: Antifungal activity against Candida albicans ATCC 10231 assessed as growth inhibition at 100 ug/mL after 3 to 4 days by agar diffusion method; details: read-out: DIZ
Candida albicans [6] = experiment: Antifungal activity against Candida albicans ATCC 10231 assessed as growth inhibition after 48 hr by broth dilution method; details: ATCC 10231, 48 h
Aspergillus niger [7] = experiment: Antifungal activity against Aspergillus niger ATCC 16404 assessed as growth inhibition after 48 hr by broth dilution method
Escherichia coli [8] = experiment: Antibacterial activity against Escherichia coli ATCC 25922 assessed as growth inhibition at 100 ug/mL after 24 hr by cup-plate method; details: ATCC 25922, 24 h, read-out: DIZ
Staphylococcus aureus [9] = experiment: Antibacterial activity against Staphylococcus aureus ATCC 25923 assessed as growth inhibition after 24 hr by broth dilution method
Staphylococcus aureus [10] = experiment: Antibacterial activity against Staphylococcus aureus ATCC 25923 assessed as growth inhibition at 100 ug/mL after 24 hr by cup-plate method; details: ATCC 25923, 24 h, read-out: DIZ
Escherichia coli [11] = experiment: Antibacterial activity against Escherichia coli ATCC 25922 assessed as growth inhibition after 24 hr by broth dilution method; details: ATCC 25922, 24 h
Pseudomonas aeruginosa [12] = experiment: Antibacterial activity against Pseudomonas aeruginosa ATCC 27853 assessed as growth inhibition at 100 ug/mL after 24 hr by cup-plate method; details: ATCC 27853, 24 h, read-out: DIZ

| SMILES | zone of inhibition at 100 µg/mL (Aspergillus niger [1]) [mm] | zone of inhibition at 100 µg/mL (Rhizopus arrhizus [2]) [mm] | MIC (Pseudomonas aeruginosa [3]; ATCC 27853, 24 h) [mg/L] | MIC (Rhizopus arrhizus [4]; MTCC 262, 48 h) [mg/L] | zone of inhibition at 100 µg/mL (Candida albicans [5]) [mm] | MIC (Candida albicans [6]) [mg/L] | MIC (Aspergillus niger [7]; ATCC 16404, 48 h) [mg/L] | zone of inhibition at 100 µg/mL (Escherichia coli [8]) [mm] | MIC (Staphylococcus aureus [9]; ATCC 25923, 24 h) [mg/L] | zone of inhibition at 100 µg/mL (Staphylococcus aureus [10]) [mm] | MIC (Escherichia coli [11]) [mg/L] | zone of inhibition at 100 µg/mL (Pseudomonas aeruginosa [12]) [mm] | MIC (Pseudomonas aeruginosa [3]) | MIC (Rhizopus arrhizus [4]) | MIC (Aspergillus niger [7]) | MIC (Staphylococcus aureus [9]) |
| --- | --- | --- | --- | --- | --- | --- | --- | --- | --- | --- | --- | --- | --- | --- | --- | --- |
| O=c1cc(-c2ccc(Cl)cc2)oc2cc3oc(-c4ccc(Cl)cc4)cc(=O)c3cc12 | 10 | 15 | 25 (≈ 57.4 µM) | 25 (≈ 57.4 µM) | 15 | 12.5 (≈ 28.7 µM) | 50 (≈ 115 µM) | 15 | 12.5 (≈ 28.7 µM) | 15 | 25 (≈ 57.4 µM) | 15 |  |  |  |  |
| O=C(/C=C/c1ccco1)c1cc(C(=O)/C=C/c2ccco2)c(O)cc1O | 15 | 10 | 12.5 (≈ 35.7 µM) | 50 (≈ 143 µM) | 15 | 12.5 (≈ 35.7 µM) | 25 (≈ 71.4 µM) | 15 | 25 (≈ 71.4 µM) | 15 | 12.5 (≈ 35.7 µM) | 15 |  |  |  |  |
| COc1cc(/C=C/C(=O)c2cc(C(=O)/C=C/c3cc(OC)c(OC)c(OC)c3)c(O)cc2O)cc(OC)c1OC | 10 | 10 | > 100 | 50 (≈ 90.8 µM) | 15 | 25 (≈ 45.4 µM) | 50 (≈ 90.8 µM) | 10 | 50 (≈ 90.8 µM) | 10 | 50 (≈ 90.8 µM) | 5 |  |  |  |  |
| COc1cccc(/C=C/C(=O)c2cc(C(=O)/C=C/c3cccc(OC)c3)c(OC)cc2OC)c1 | < 5 | < 5 |  |  | 5 | > 100 |  | 5 |  | < 5 | > 100 | < 5 | inactive | inactive | inactive | inactive |
| COc1cc(OC)c(C(=O)/C=C/c2cc(OC)c(OC)c(OC)c2)cc1C(=O)/C=C/c1cc(OC)c(OC)c(OC)c1 | < 5 | < 5 | > 100 |  | 5 | > 100 |  | 10 | > 100 | 5 | 50 (≈ 86.4 µM) | 5 |  | inactive | inactive |  |
| CN(C)c1ccc(/C=C/C(=O)c2cc(C(=O)/C=C/c3ccc(N(C)C)cc3)c(O)cc2O)cc1 | 5 | 10 | 50 (≈ 110 µM) | 50 (≈ 110 µM) | 10 | 50 (≈ 110 µM) | > 100 | 15 | 50 (≈ 110 µM) | 10 | 25 (≈ 54.8 µM) | 10 |  |  |  |  |
| COc1cccc(/C=C/C(=O)c2cc(C(=O)/C=C/c3cccc(OC)c3)c(O)cc2O)c1 | 10 | 15 | 50 (≈ 116 µM) | 25 (≈ 58.1 µM) | 15 | 25 (≈ 58.1 µM) | 50 (≈ 116 µM) | 10 | 50 (≈ 116 µM) | 10 | 50 (≈ 116 µM) | 10 |  |  |  |  |
